“Also recorded” adds a separate entry of the source. Peptide text beside a SMILES is read from it. * marks the point of attachment. Cbz = O=C(OCc1ccccc1)*; CH2F = FC*
Assays:
MDA-MD-231 = details: for induction of apoptosis by NF-κB blockers: PGA1 100 μM 20 hours, CAPE 50 μg/ml 17 hours, parthenolide 2.5 μg/ml 4 hours
BT-20 = details: for induction of apoptosis by NF-κB blockers: PGA1 100 μM 20 hours, CAPE 50 μg/ml 17 hours, parthenolide 2.5 μg/ml 4 hours
[1] = test system: JNK activation in 3DO cells; experiment: JNK activation by TNFα in 3DO cells (Western blots, JNK kinase assays); format: cell-based
Protocol: Plasmids were transfected as indicated along with pEGFP (Clontech). […] Inhibitors (Calbiochem) and concentrations are as indicated.
Northern blots were performed by standard procedures using 6 μg of total RNA. The EMSAs with the palindromic probes and the preparation of whole cell extracts were as previously described (Franzoso et al., 1992). For western blots, cell extracts were prepared either in a modified lysis buffer (50 mM Tris, pH 7.4, 100 mM NaCl, 50 mM NaF, 1 mM NaBo4, 30 mM pyrophosphate, 0.5% NP-40, and protease inhibitors (FIG. 1B; Boehringer Mannheim), in Triton X-100 buffer (FIG. 4A; Medema et al., 1997) or in a lysis buffer containing 1% NP-40 350 mM NaCl, 20 MM HEPES (pH 8.0), 20% glycerol, 1 mM MgCl2, 0.1 mM EGTA, 0.5 mM DTT, 1 mM Na3VO4, 50 mM NaF and protease inhibitors. Each time, equal amounts of proteins (ranging between 15 and 50 μg) were loaded and Western blots prepared according to standard procedures. Reactions were visualized by ECL (Amersham). Antibodies were as follows: IκBα, Bid, and β-actin from Santa Cruz Biotechnology; caspase-6, -7 and -9, phospho and total -p38, phosph and total -ERK, phospho and total -JNK from Cell Signaling Technology; caspase-8 from Alexis; Caspase-2 and -3 from R&D systems. The Gadd45β-specific antibody was generated against an N-Terminal peptide. Kinase assays were performed with recombinant GST-c-jun and anti-JNK antibodies (Pharmingen), (Lin et al., 1995).

3DO-IκBαM cells = experiment: Survival of 3DO-IκBαM cells pretreated with MAPK inhibitors, then TNFα; details: TNFα 25 U/ml 12 hours
Protocol: FIG. 5a: Kinetics of JNK activation by TNKα (1000 U/ml) in 3DO—IκBαM and 3DO-Neo clones. Western blots with antibodies specific for phosphorylated (P) or total JNK (top and middle, respectively) and JNK kinase assays (bottom). […] CHX treatments were carried out for 30 minutes in addition to the indicated time. FIG. 5d: Survival of transfected RelA−/− MEFs following treatment with TNFα (1000 U/ml) plus CHX ([…]) for 10 hours. Plasmids were transfected as indicated along with pEGFP (Clontech). FIG. 5e: Survival of 3DO-IκBαM cells pretreated with MAPK inhibitors for 30 minutes and then incubated with either TNFα (25 U/ml) or PBS for an additional 12 hours. Inhibitors (Calbiochem) and concentrations are as indicated. In (d) and (e), values represent the mean of three independent experiments.
MEF and 3DO cells were cultured in 10% Fetal bovine serum-supplemented DMEM and RPMI, respectively. Transient transfections in RelA−/− MEF were performed by Superfect according to the manufacturer's instructions (Qiagen). After cytotoxic treatment with CHX (Sigma) plus or minus TNFα (Peprotech), adherent cells were counted and analyzed by FCM (FACSort, Becton Dickinson) to assess numbers of live GFP^+ cells. To generate 3DO stable lines, transfections were carried out by electroporatoration (BTX) and clones were grown in appropriate selection media containing Geneticin (Gibco) and/or Hygromycin (Invitrogen). […] Daunorubicin, PMA, Ionomycin, hydrogen peroxide, and sorbitol were from Sigma; Cisplatin (platinol AQ) was from VHAplus, PD98059 and SB202190 were from Calbiochem.

JNKK2/MKK7 = biological target: T1, JNKK2/MKK7 (Homo sapiens, UniProt O14733, Q133P/Q94H); experiment: Kinase assay of immunoprecipitated FLAG-JNKK2/MKK7 (GST-JNK1 substrate) pre-incubated with recombinant Gadd45β proteins or peptides; format: biochemical; details: active MKK7 from TNFα-activated 293 cells, GST-JNK1 substrate
T1 construct: expressed in transfected cells; host or cells: HEK-293, TNFα-treated or untreated; anti-FLAG immunoprecipitate
T1 sequence (O14733 1-401 Q94H/Q133P limits assumed): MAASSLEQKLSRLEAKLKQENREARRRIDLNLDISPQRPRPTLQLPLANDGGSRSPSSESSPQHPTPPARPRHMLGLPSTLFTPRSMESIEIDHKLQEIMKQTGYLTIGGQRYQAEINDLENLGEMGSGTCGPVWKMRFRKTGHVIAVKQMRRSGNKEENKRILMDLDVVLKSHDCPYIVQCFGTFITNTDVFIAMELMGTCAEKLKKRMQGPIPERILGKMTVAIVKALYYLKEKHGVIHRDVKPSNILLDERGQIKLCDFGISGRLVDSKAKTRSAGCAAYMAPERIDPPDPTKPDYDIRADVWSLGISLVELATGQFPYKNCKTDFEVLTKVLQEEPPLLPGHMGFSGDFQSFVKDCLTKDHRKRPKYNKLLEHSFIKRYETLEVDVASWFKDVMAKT
Protocol: Next, the functional consequences, in vitro, of the physical interactions of Gadd45β with kinases in the JNK pathway were assessed. Murine and human, full-length Gadd45J3 proteins were purified from E. coli as GST-Gadd45β and His6-tagged Gadd45β (His6 disclosed as SEQ ID NO: 46), respectively, according to standard procedures. Prior to employing these proteins in in vitro assays, purity of all recombinant polypeptides was assured by >98%, by performing Coomassie blue staining of SDS polyacrylamide gels. Then, the ability of these proteins, as well as of control GST and His6-EF3 (His6 disclosed as SEQ ID NO: 46)proteins, to inhibit kinases in the JNK pathways was monitored in vitro. FLAG-tagged JNKK2, JNKK1, MKK3, and ASK1 were immunoprecipitated from transiently transfected 293 cells using anti-FLAG antibodies and pre-incubated for 10 minutes with increasing concentrations of recombinant proteins, prior to the addition of specific kinase substrates (i.e. GST-JNK1 with JNKK1 and JNKK2; GST-p38[…] with MKK3; GST-JNNK1 or GST-JNKK2 with ASK1). […] These findings indicate that, upon binding to Gadd45β, JNKK2 is effectively inactivated.
A question was whether Gadd45β inhibited active MKK7, in vitro. FLAG-MKK7 was immunoprecipitated from TNFα-treated or untreated 293 cells, and kinase assays were performed in the presence of purified His6-Gadd45β (His6 disclosed as SEQ ID NO: 46), GST-Gadd45β, or control proteins (FIG. 28d; see also FIG. 28g). […] Consistent with the in vivo findings (FIG. 27), the inhibitory activity of Gadd45β was specific. […] Indeed, the effects of Gadd45β on MKK7 phosphorylation by TNFα may be due inhibition of the MKK7 ability to auto-phoshorylate and/or to serve as substrate for upstream kinases. Altogether, the findings identify MKK7 as a target of Gadd45β, and of NF-[…]B, in the JNK cascade. Of interest, MKK7 is a selective activator of JNK, and its ablation abolishes JNK activation by TNFα. Thus, blockade of MKK7 is sufficient on its own to explain the effects of Gadd45β on JNK signaling—i.e. its specific and near-complete suppression of this signaling.
Active MKK7 was immunoprecipitated from TNFα-activated 293 cells and MKK7 kinase assays were performed using GST-JNK1 substrates and pure recombinant Gadd45β polypeptides (FIG. 37B; a schematic diagram representing the Gadd45βpolypeptides used is shown in FIG. 37A). […] MKK7 kinase assays were performed as in FIG. 37B, except that pure synthetic Gadd45, peptides (whose sequences are shown in FIG. 37C) were used instead of pure recombinant Gadd45β proteins. The amino acid region between amino acids 58 and 77 of Gadd45βis used for the Gadd45β-mediated inhibition of MKK7. […]

[2] = concomitant treatment with PGA1, CAPE or parthenolide

Compound: O=C(/C=C/c1ccc(O)c(O)c1)OCCc1ccccc1 [CAPE]
- induction of apoptosis by NF-κB blockers (MDA-MD-231): induced apoptosis rapidly
- induction of apoptosis by NF-κB blockers (BT-20): induced apoptosis rapidly

Compound: C[C@@H]1C[C@@H]([C@H](O)CC2CC(=O)NC(=O)C2)C(=O)[C@@H](C)C1 [CHX, cycloheximide]
- JNK activation by agent alone ([1]; 3DO cells, CHX alone): no effect
- down-regulation of TNFα-induced JNK ([1]; parental 3DO cells, TNFα 1000 U/ml plus CHX 10 μg/ml): impaired

Compound: COc1cccc(-c2cc(=O)c3ccccc3o2)c1N [PD98059]
- antagonism of TNFα cytotoxicity (3DO-IκBαM cells; 30 min pretreatment): could not antagonize

Compound: Oc1ccc(-c2nc(-c3ccncc3)c(-c3ccc(F)cc3)[nH]2)cc1 [SB202190]
- cell survival under TNFα (3DO-IκBαM cells; high concentrations, 50 μM): dramatically enhanced cell survival; also recorded: rescues
- antagonism of TNFα cytotoxicity (3DO-IκBαM cells; low concentrations, 5 μM and lower): could not antagonize

Compound: Oc1c2ccccc2c2c3c(cccc13)N=N2 [SP600125]
- rescue from cytotoxicity induced by inhibition of NF-κB (MDA-MD-231; [2]): can be rescued; also recorded: dramatically rescued
- rescue from cytotoxicity induced by inhibition of NF-κB (BT-20; [2]): can be rescued; also recorded: dramatically rescued

Compound: CCCCC[C@H](O)/C=C/[C@H]1C=CC(=O)[C@@H]1CCCCCCC(=O)O [prostaglandin A1]
- induction of apoptosis by NF-κB blockers (MDA-MD-231): induced apoptosis rapidly
- induction of apoptosis by NF-κB blockers (BT-20): induced apoptosis rapidly

Compound: COC(=O)C[C@H](NC(=O)[C@H](C)NC(=O)[C@@H](NC(=O)OCc1ccccc1)C(C)C)C(=O)CF [zVAD-fik] (Cbz-Val-Ala-Asp(OMe)-CH2F)
- late (160 minutes, caspase-dependent) rise of JNK activation by TNFα ([1]; IκBαM-Hygro 3DO clones): could be prevented

Compound: AIDEEEEDDIALQIHFTLIQSFCCDND [amino acids 60-86, positions 60-86 of Gadd45β]
- inhibition of MKK7 activity by Gadd45β-derived peptides / polypeptide regions (JNKK2/MKK7): sufficient to also inhibit MKK7 activity
